Results published in patent publication EP4663640A1 (Shanghai Institute of Materia Medica, Chinese Academy of …, priority 2023, dated 2024).
pIC50: −log10 of the molar value. Where two headings read alike, the source gives them in different places.

Key:
Format in all cases: cell-based
hTRPC4 = target: T1, hTRPC4 (Homo sapiens, UniProt Q9UBN4); assay: TRPC4 inhibitory activity assay (FLIPR calcium fluorescence)
T1 construct: expressed in transfected cells; host or cells: HEK-293
T1 sequence (Q9UBN4 1-977): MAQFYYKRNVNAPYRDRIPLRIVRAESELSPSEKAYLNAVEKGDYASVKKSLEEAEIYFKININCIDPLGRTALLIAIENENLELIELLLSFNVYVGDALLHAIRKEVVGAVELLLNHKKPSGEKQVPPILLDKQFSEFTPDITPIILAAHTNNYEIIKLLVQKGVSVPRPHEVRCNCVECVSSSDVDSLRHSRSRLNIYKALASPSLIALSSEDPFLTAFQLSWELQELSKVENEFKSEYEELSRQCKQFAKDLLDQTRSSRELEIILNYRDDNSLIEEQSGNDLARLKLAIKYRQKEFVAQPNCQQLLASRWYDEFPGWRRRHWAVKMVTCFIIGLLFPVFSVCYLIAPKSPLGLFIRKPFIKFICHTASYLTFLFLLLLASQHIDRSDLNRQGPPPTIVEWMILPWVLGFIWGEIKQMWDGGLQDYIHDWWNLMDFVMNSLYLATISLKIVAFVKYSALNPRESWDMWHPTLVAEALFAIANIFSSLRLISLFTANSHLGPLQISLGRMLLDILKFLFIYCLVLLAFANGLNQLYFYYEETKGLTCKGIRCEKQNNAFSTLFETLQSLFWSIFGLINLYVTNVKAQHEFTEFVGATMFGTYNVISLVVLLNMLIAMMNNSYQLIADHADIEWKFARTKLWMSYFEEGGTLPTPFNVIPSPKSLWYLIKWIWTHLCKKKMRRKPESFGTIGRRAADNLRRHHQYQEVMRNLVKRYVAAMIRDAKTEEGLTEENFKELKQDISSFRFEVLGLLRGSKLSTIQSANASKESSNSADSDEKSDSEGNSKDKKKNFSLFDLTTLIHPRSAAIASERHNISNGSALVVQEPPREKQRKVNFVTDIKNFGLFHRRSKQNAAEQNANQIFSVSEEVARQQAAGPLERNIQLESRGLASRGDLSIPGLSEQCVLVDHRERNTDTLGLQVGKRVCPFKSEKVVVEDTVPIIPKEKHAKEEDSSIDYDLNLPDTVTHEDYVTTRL
Description: (§1) HEK-293 cells expressing hTRPC3, hTRPC4 or hTRPC5 were seeded into black-bottomed 96-well plates coated with poly-lysine (PDL), with 2×10^4 cells per well. After 8 h of culture, the original culture medium was discarded, and 60 µL of Fluo-4/AM dye with a final concentration of 4 µM was added. The plates were incubated at 37 °C for 60 min, and then rinsed five times with calcium flow detection buffer. […] Then, the agonist Englerin A (EA) (MedChemExpress, Shanghai, China, final concentration of 0.3nM) was added, and the fluorescence signal was collected for 600 seconds. The fluorescence signal of the trajectory diagram is represented by F/F0, wherein F is the fluorescence signal at different time points, and F0 is the basic fluorescence signal, that is, the average value of the fluorescence signal at the first 10 time points. […] The area under the curve of the change in fluorescence intensity after adding EA was calculated. IC50 value was calculated using log[Inhibitor] vs. response - Variable slope, taking into account the area under the curve and the log value of the concentration of the compound.

hERG channel = target: T2, hERG channel (Homo sapiens, UniProt Q12809); assay: hERG channel inhibition assay (Qpatch whole-cell recording, CHO cells expressing hERG); details: for pIC50: Table 3, highest test concentration 40 µM, read-out: inhibitory activity IC50 hERG
T2 construct: expressed in transfected cells; host or cells: CHO
Description: (§2) CHO cells expressing hERG protein were cultured in 175cm^2 culture flasks. When the cell density grew to 60-80%, the culture medium was removed, and the cells were washed with 7mL PBS, and then 3mL Detachin was added for digestion. After digestion was complete, 7mL culture medium was added for neutralization, and then centrifuged, the supernatant was aspirated, and 5mL culture medium was added for resuspending to ensure that the cell density was 2-5×10^6/mL.
(§3) The single-cell high-impedance sealing and whole-cell pattern formation process were all automatically completed by the Qpatch instrument. After obtaining the whole-cell recording mode, the cell was clamped at -80 mV. […] This voltage stimulus was applied every 15 seconds. After recording for 2 minutes, the extracellular solution was recorded for 2 minutes, and then the drug administration process began. The compound concentration started from the lowest test concentration, and each test concentration was given for 2 minutes. After all concentrations were given continuously, the positive control compound 10 µM Cisapride was given. At least 3 cells (n≥3) were tested for each concentration.
(§4) The stock solution of compound was diluted with extracellular solution, 5 µL of 20 mM compound stock solution was added to 2495 µL of extracellular solution, 500 times diluted to 40 µM, and then 3 times serial dilution was performed in the extracellular solution containing 0.2% DMSO to obtain the final concentration to be tested.
(§5) (5) Data analysis: The experimental data were analyzed by XLFit software.

[1] = target: T3, hERG channel (relative to TRPC5) (Homo sapiens, UniProt Q12809); assay: as above; details: human, CHO cells expressing hERG; ratio of IC50 values
T3 construct: expressed in transfected cells; host or cells: CHO
Description: as §2, §3, §4, §5

hTRPC3 = target: T4, hTRPC3 (Homo sapiens, UniProt Q13507); assay: TRPC3 inhibitory activity assay (FLIPR calcium fluorescence); details: for relative selectivity TRPC3/ TRPC5: ratio of IC50 values
T4 construct: expressed in transfected cells; host or cells: HEK-293
T4 sequence (Q13507 1-921): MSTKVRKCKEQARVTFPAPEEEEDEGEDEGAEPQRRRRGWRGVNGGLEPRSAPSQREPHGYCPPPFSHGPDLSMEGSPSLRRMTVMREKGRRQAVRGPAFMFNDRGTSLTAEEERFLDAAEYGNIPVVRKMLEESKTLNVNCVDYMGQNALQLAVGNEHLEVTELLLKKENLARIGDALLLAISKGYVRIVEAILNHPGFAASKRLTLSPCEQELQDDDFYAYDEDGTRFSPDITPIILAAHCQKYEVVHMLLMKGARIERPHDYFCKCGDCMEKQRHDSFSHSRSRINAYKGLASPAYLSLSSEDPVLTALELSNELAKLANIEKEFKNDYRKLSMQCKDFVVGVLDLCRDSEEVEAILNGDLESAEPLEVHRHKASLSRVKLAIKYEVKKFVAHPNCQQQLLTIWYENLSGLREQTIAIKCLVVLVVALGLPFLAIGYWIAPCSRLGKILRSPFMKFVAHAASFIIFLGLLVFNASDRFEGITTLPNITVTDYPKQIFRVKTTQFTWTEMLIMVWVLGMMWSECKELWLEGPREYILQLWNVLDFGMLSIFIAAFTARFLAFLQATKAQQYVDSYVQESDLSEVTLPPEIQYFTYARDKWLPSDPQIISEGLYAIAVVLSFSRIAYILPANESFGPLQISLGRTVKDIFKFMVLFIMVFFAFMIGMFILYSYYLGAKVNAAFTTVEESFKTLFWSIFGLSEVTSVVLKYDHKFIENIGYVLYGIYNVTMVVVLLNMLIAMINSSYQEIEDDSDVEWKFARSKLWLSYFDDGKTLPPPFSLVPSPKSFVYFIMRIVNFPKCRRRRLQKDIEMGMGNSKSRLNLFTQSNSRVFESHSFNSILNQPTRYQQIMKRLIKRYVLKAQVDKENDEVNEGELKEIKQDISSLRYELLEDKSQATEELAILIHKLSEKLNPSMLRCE
Description: as §1

[2] = Table 3, read-out: inhibitory activity IC50 TRPC4
[3] = Table 3, read-out: inhibitory activity IC50 TRPC3

T3 sequence (Q12809 whole entry): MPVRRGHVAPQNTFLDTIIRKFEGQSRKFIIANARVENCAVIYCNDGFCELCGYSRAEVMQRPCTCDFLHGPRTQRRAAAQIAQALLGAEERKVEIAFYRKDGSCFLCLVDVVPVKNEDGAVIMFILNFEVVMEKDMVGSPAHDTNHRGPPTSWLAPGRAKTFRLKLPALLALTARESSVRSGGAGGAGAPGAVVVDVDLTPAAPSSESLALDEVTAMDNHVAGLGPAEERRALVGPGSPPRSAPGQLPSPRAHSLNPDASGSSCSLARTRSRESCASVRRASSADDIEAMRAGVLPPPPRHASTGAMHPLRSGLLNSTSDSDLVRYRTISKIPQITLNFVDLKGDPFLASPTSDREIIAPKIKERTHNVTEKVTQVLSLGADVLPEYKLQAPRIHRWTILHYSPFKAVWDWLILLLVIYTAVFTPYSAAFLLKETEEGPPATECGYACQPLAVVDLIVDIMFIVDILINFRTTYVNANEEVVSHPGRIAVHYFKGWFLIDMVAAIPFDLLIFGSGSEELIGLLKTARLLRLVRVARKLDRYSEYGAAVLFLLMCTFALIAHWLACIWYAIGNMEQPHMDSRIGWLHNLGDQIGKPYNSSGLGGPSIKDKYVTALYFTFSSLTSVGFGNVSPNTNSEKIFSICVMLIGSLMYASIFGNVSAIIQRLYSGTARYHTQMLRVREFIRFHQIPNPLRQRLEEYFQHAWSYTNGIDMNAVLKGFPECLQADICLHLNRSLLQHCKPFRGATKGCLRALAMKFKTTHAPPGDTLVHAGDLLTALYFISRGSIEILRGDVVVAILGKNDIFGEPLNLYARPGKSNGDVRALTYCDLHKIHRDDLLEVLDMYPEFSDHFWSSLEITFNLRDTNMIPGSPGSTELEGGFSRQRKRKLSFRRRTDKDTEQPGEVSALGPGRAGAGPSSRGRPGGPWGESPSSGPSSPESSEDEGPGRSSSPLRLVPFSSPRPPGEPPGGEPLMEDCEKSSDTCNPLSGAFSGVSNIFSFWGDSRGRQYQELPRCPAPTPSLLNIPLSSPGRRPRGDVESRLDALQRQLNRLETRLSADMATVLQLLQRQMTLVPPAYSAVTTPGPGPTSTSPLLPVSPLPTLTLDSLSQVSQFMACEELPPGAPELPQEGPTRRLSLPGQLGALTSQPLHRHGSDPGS
T2 sequence (Q12809 whole entry): as above

## Cn1c(=O)n(CCCO)c(=O)c2c1nc(C1(F)CCC(C(F)(F)F)CC1)n2Cc1ccc(Cl)cc1 (centres unmarked) [Example E21, 7-(4-chlorobenzyl)-8-(1-fluoro-4-(trifluoromethyl)cyclohexyl)-1-(3-hydroxypropyl)-3-methyl-3,7-dihydro-1H-purine-2,6-dione]
hTRPC4; [2]
  pIC50: 8.08
hERG channel
  pIC50: < 4.40
[1]
  selectivity ratio at 2 min: > 7840
hTRPC3; [3]
  pIC50: 5.55
hTRPC3
  relative selectivity TRPC3/ TRPC5: 555

## COC1CCC(F)(c2nc3c(c(=O)n(CCCO)c(=O)n3C)n2Cc2ccc(Cl)cc2)CC1 (centres unmarked) [Example E32, 7-(4-chlorobenzyl)-8-(1-fluoro-4-methoxycyclohexyl)-1-(3-hydroxypropyl)-3-methyl-3,7-dihydro-1H-purine-2,6-dione]
hTRPC4; [2]
  pIC50: 7.74
hERG channel
  pIC50: 5.12
[1]
  selectivity ratio at 2 min: 737
hTRPC3; [3]
  pIC50: < 5.00
hTRPC3
  relative selectivity TRPC3/ TRPC5: > 980

## Cn1c(=O)n(CCCO)c(=O)c2c1nc(C1(F)CCC(C(F)(F)F)CC1)n2Cc1ccc(F)c(F)c1 (centres unmarked) [Example E52]
hTRPC4
  pIC50: 8.24
hERG channel
  pIC50: < 4.40
hERG channel; ratio of IC50 values, read-out: relative selectivity hERG/ TRPC5
  selectivity ratio: > 30800
hTRPC3
  pIC50: 5.60
  relative selectivity TRPC3/ TRPC5: 1946

## Cn1c(=O)n(CCCO)c(=O)c2c1nc(C1(F)CCC(F)(F)CC1)n2Cc1ccc(F)c(Cl)c1 [Example E68, 7-(3-chloro-4-fluorobenzyl)-1-(3-hydroxypropyl)-3-methyl-8-(1,4,4-trifluorocyclohexyl)-3,7-dihydro-1H-purine-2,6-dione]
hERG channel
  pIC50: < 4.40
[1]
  selectivity ratio at 2 min: > 69000
